Data reported in US12078634B2, “Broad spectrum kinase binding agents” (Promega Corporation, priority 2018, dated 2024).
One block for each compound: values may come before it.

Tests used:
[1] = test system: kinase/Nluc fusions; assay: NanoBRET fractional occupancy by competitive displacement of NanoBRET tracers in living HEK293 cells; format: cell-based; settings: of the 200 kinases evaluated, 300 nM test compound, 2 hours, CC-1861 vs CTx (FIG. 5)
Description: Transfections were performed using 3:1 FuGENE HD:plasmid ratios.

[2] = test system: kinase/Nluc fusions
Description: NanoBRET™ assays were run by competitive displacement of NanoBRET™ tracers in living HEK293 cells.
Values were measured by competitive displacement of NanoBRET™ tracers in living cells.
In wells of 96-well plates, 20,000 HEK293 cells per well were transfected with kinase/Nluc fusions expressed from pFN31K and pFN32K plasmids. Transfections were performed using 3:1 FuGENE HD:plasmid ratios. 24 hours post transfection, cells were treated for 2 hours in the presence of tracer and varying concentration of control inhibitor indicated. After incubation, NanoBRET™-TE substrate/inhibitor solution was added to a final concentration of 1×, and BRET was measured on a Glomax® Discover plate reader.

[3] = test system: kinase/NanoLuc® (Nluc) fusion proteins; assay: NanoBRET relative BRET signal of kinase tracers against a panel of kinase/NanoLuc fusions in live cells; format: cell-based; settings: HEK293 cells, 2 hours, 0.5 uM CC-1804, CC-1852, or 1 uM CC-1294; compared to CC-1294
Description: (§1) FIG. 1A-B. Summary of the BRET results generated with kinase tracers against a large panel of kinase/NanoLuc® fusions expressed in live cells. Assay signals were assessed by taking the ratio of BRET in the presence of tracer/no tracer control. Assays are categorized as follows: >3-fold signal (green cells), 2-3 fold signal (yellow cells), and 1.5-2 fold signal (red cells).
as §1, with “1C-F. Individual BRET signals observed between” for “1A-B. Summary of”, “broad-spectrum” for “BRET results generated with”, “and individual” for “against a large panel of”
Experiments were conducted during development of embodiments herein to derive a comprehensive analysis of intracellular kinase target engagement using NanoBRET™ tracers derived from CC-1294 versus NanoBRET™ tracers derived from novel inhibitors. […] NanoBRET was measured on a Glomax® Discover plate reader. To determine relative BRET signals, BRET arising from the tracer was divided by BRET in the absence of tracer.

Structure (SMILES): CNC(=O)c1ccccc1Nc1nc(Nc2ccc(N3CCNCC3)cc2)ncc1Cl [CTx-0294885, 2-((5-chloro-2-((4-(piperazin-1-yl)phenyl)amino)pyrimidin-4-yl)amino)-N-methylbenzamide]
- number of kinases that preferred the compound over the other [1]: 4

- inhibitor potency compared to CTx ([2]; HEK293 cells, 2 hours, tracer plus varying concentration of inhibitor (FIG. 7)): increased inhibitor potency
Structure (SMILES): NC(=O)c1ccccc1Nc1nc(Nc2ccc(N3CCNCC3)cc2)ncc1Cl [CC-1861, 2-((5-chloro-2-((4-(piperazin-1-yl)phenyl)amino)pyrimidin-4-yl)amino)benzamide]
- intracellular affinity compared to CTx-0294885 ([2]; living HEK293 cells, four targets tested (FIG. 7)): stronger than CTx-0294885 for three of the four targets tested

Structure (SMILES): NC(=O)c1ccccc1Nc1nc(Nc2cccc(N3CCNCC3)c2)ncc1Cl [CC-1852]
- target engagement/kinase profiling breadth (relative BRET signal, tracer / no tracer) [3]: unexpectedly broad spectrum target engagement/kinase profiling
